Test results as given in ChEMBL document CHEMBL1201862, “PubChem BioAssay data set” (2004).
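96-well plates; 48 h exposure; 5 concentrations. Endpoints by linear interpolation between flanking doses. Not reached: highest tested concentration assigned. The concentration for 50% growth inhibition is given as GI50.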 Activity calls are given as the source filed them. Cut-off read from the data, not from the text of the source: active = GI50 up to about 1.1 µM and inactive = higher.

Key:
Assay in all cases: NCI tumour cell line growth inhibition, 48 h
[1] = test system: BT-549
[2] = test system: DMS-273
[3] = test system: M19-MEL
[4] = test system: KM-20L2
[5] = test system: XF498
[6] = test system: DLD-1
[7] = test system: HOP-18
[8] = test system: SNB-78
[9] = test system: RXF 631

SMILES: Cc1cc(C)c(C(=O)c2nnc3ccccc3c2N)c(C)c1
- GI50 [1]: 63.1 µM (inactive)

SMILES: COC(=O)C1Cc2cc3c(cc2C1)CCC3
- GI50 [1]: > 100 µM (inactive)

SMILES: CC1=NNC(=O)C1C1CC(c2c[nH]c3ccccc23)=NNC1=S (configuration not stated)
- GI50 [1]: 50.2 µM (inactive)

SMILES: O=C1/C(=C/c2ccccc2)CCc2ccc([N+](=O)[O-])cc21
- GI50 [1]: 31.3 µM (inactive)

SMILES: S=C(Nc1ccc2cn[nH]c2c1)Nc1ccc2cn[nH]c2c1
- GI50 [1]: 27.6 µM (inactive)

SMILES: CCCCCCCCCC(=O)NC(Cc1ccc(O)cc1)C(=O)NCCCNCCCCNCCCNC(=O)[C@@H](N)CCCN=C(N)N (some centres not stated)
- GI50 [2]: 20.9 µM (inactive)
- GI50 [3]: 50.2 µM (inactive)
- GI50 [4]: > 100 µM (inactive)
- GI50 [5]: > 100 µM (inactive)

SMILES: COC(=O)c1cc(=O)nc2cc3cccccc3n12
- GI50 [3]: > 100 µM (inactive)
- GI50 [4]: > 100 µM (inactive)
- GI50 [6]: > 100 µM (inactive)
- GI50 [7]: > 100 µM (inactive)
- GI50 [5]: > 100 µM (inactive)

SMILES: CC1(C)[C@@H](Cn2cnc3c(N)ncnc32)CC[C@@]1(C)CO
- GI50 [1]: > 100 µM (inactive)

SMILES: CCC[C@H](O)[C@@H](CNc1cc(NC(C)=O)nc(NC(C)=O)n1)N(Cc1ccccc1)Cc1ccccc1
- GI50 [1]: 16.1 µM (inactive)

SMILES: COc1cccc(C2c3cc4c(cc3OC(N3CCCCC3)C2C)OCO4)c1O (configuration not stated)
- GI50 [1]: 9.2 µM (inactive)

SMILES: C[C@]12CC/C(=N\O)C=C1CC[C@@H]1C2CC[C@@]2(C)C1CC[C@@H]2OC1CCCCO1 (some centres not stated)
- GI50 [2]: 17.7 µM (inactive)
- GI50 [8]: 19.1 µM (inactive)
- GI50 [3]: 19.1 µM (inactive)
- GI50 [4]: 14.4 µM (inactive)
- GI50 [6]: 30.7 µM (inactive)
- GI50 [7]: 16.4 µM (inactive)

SMILES: CSc1c([S+](C)[O-])[nH]c2cc(Br)cc(Br)c12 (configuration not stated)
- GI50 [2]: 16.4 µM (inactive)
- GI50 [8]: 19.3 µM (inactive)
- GI50 [3]: 29.2 µM (inactive)
- GI50 [6]: 16.5 µM (inactive)
- GI50 [7]: 39.5 µM (inactive)

SMILES: OCc1ccc2c(c1)CC1(Cc3ccc(/C=N/O)cc3C1)C2 (configuration not stated)
- GI50 [1]: 10.4 µM (inactive)

SMILES: NS(=O)(=O)c1nnc(NC(=O)C23CC4CC(CC(C4)C2)C3)s1
- GI50 [1]: 82.2 µM (inactive)

SMILES: CN(C)CCCNC(=O)c1cc(NC(=O)c2cc(NS(=O)(=O)c3ccc4c(c3)C(=O)c3ccccc3C4=O)cn2C)cn1C
- GI50 [1]: 52.7 µM (inactive)

SMILES: OC(C#CCN1CCCC1)(c1ccccc1)c1ccccc1Cl (configuration not stated)
- GI50 [1]: 46.2 µM (inactive)

SMILES: COc1ccc(OC)c2sc(N3C(=O)/C(=C/c4ccc(N(C)C)cc4)N=C3c3ccccc3)nc12
- GI50 [1]: 97.1 µM (inactive)

SMILES: C[C@H]1CC(=O)C[C@@H]2CC[C@@H]3[C@H](CC[C@]4(C)C(OC(=O)c5cccc6c(=O)c7ccccc7[nH]c56)CC[C@@H]34)[C@]21C (some centres not stated)
- GI50 [1]: 26.7 µM (inactive)

SMILES: N/N=c1/nc2n(c3ncccc13)C=CNN2
- GI50 [2]: > 100 µM (inactive)
- GI50 [9]: > 100 µM (inactive)
- GI50 [4]: > 100 µM (inactive)
- GI50 [6]: > 100 µM (inactive)
- GI50 [5]: > 100 µM (inactive)

SMILES: O=c1cnn(C2OC(CO)C(O)C(F)C2O)c(=O)[nH]1 (configuration not stated)
- GI50 [1]: > 100 µM (inactive)

SMILES: CC1CC(NN)=Nc2ccccc2N1 (configuration not stated)
- GI50 [1]: > 100 µM (inactive)

SMILES: COC1(OC)C[C@H](C)[C@@]23O[C@]24C2=CC(=O)C=CC2=N[C@H]3C#C/C=C\C#C[C@]14O
- GI50 [1]: 1 µM (active)

SMILES: C[C@@H](NC1CCC[C@@H]1O)c1ccccc1 (some centres not stated)
- GI50 [2]: > 100 µM (inactive)
- GI50 [8]: > 100 µM (inactive)
- GI50 [3]: > 100 µM (inactive)
- GI50 [4]: > 100 µM (inactive)
- GI50 [6]: > 100 µM (inactive)
- GI50 [7]: > 100 µM (inactive)
- GI50 [5]: > 100 µM (inactive)

SMILES: O=C(NO)C12C3C4C1C1C2C3C41C(=O)NO (configuration not stated)
- GI50 [2]: > 100 µM (inactive)
- GI50 [8]: > 100 µM (inactive)
- GI50 [3]: > 100 µM (inactive)
- GI50 [4]: > 100 µM (inactive)
- GI50 [6]: > 100 µM (inactive)
- GI50 [7]: > 100 µM (inactive)

SMILES: CCC(=O)NCC1(c2c[nH]c3ccccc23)SCCS1
- GI50 [2]: > 100 µM (inactive)
- GI50 [8]: > 100 µM (inactive)
- GI50 [3]: > 100 µM (inactive)
- GI50 [4]: > 100 µM (inactive)
- GI50 [6]: > 100 µM (inactive)
- GI50 [7]: > 100 µM (inactive)
- GI50 [5]: > 100 µM (inactive)

SMILES: O=C1/C(=N\O)c2ccccc2S1(=O)=O
- GI50 [2]: > 100 µM (inactive)
- GI50 [8]: > 100 µM (inactive)
- GI50 [3]: > 100 µM (inactive)
- GI50 [4]: > 100 µM (inactive)
- GI50 [6]: > 100 µM (inactive)
- GI50 [7]: > 100 µM (inactive)

SMILES: CCOC1=NC(=O)CC(c2ccccc2)S1 (configuration not stated)
- GI50 [2]: > 100 µM (inactive)
- GI50 [8]: > 100 µM (inactive)
- GI50 [3]: > 100 µM (inactive)
- GI50 [4]: > 100 µM (inactive)
- GI50 [6]: 95.5 µM (inactive)
- GI50 [5]: > 100 µM (inactive)

SMILES: O=C(/C(=C\c1ccc(Cl)cc1)c1ccccc1)c1ccccc1
- GI50 [8]: > 100 µM (inactive)
- GI50 [6]: 93.5 µM (inactive)
- GI50 [7]: > 100 µM (inactive)
- GI50 [5]: 37.6 µM (inactive)

SMILES: CNC(=O)CCC(NC(=O)OC(C)(C)C)C(=O)NC(Cc1ccc(NC(=O)CCCCC(C)=O)cc1)C(=O)NCC(=O)NC (configuration not stated)
- GI50 [1]: > 100 µM (inactive)

SMILES: O=S(=O)(O)C(CO)c1ccccc1.O=S(=O)(O)Cc1ccccc1 (configuration not stated)
- GI50 [1]: > 100 µM (inactive)

SMILES: CCOC(=O)NNC(=O)NCCNC(=O)NNC(=O)OCC
- GI50 [1]: > 100 µM (inactive)

SMILES: O=S1(=O)N=C(SCc2c[nH]c3ccccc23)N(c2ccccc2)c2ccncc21
- GI50 [1]: 59 µM (inactive)
